Converted amounts (≈) assume the structure as drawn.
Experiments:
Test in all cases: MIC, Macro-broth dilution method
[1] = test system: S. aureus (20666); format: cell-based, Staphylococcus aureus
Description: (§1) The in-vitro potency was established by minimum inhibitory concentration (MIC) determinations of the compound PM181104 against bacterial strains, by using the Macro-broth dilution method as per National Committee for Clinical Laboratory Standards (2000) guidelines [Journal of Anti-microbial Chemotherapy, 2002, 50, 125-128 (Cross Reference 8: Methods for Dilution Antimicrobial Susceptibility Tests for Bacteria that Grow Aerobically-Fifth Edition: Approved Standard M7-A5. NCCLS, Wayne, Pa., USA)]. Unless stated otherwise, Mueller-Hinton broth was used as nutrient medium for the assay. Linezolid (manufactured by Glenmark Pharma Ltd; Batch no: K2005028) was used as known standard in all in-vitro experiments. For preparation of the stock solution the compound PM181104 was dissolved in chloroform (5% of the total required volume) and diluted using methanol (95% of the total required volume).

[2] = test system: S. aureus (3066); format: cell-based, Staphylococcus aureus
Description: as §1

[3] = test system: S. aureus (E710); format: cell-based, Staphylococcus aureus; details: S. aureus MRSA E710
Description: as §1

[4] = test system: S. aureus ATCC29213; format: cell-based, Staphylococcus aureus
Description: as §1

[5] = test system: S. aureus Bom-MRSA2; format: cell-based, Staphylococcus aureus
Description: as §1

[6] = test system: S. aureus C1 3184; format: cell-based, Staphylococcus aureus
Description: as §1

[7] = test system: S. aureus KEM-MRSA12; format: cell-based, Staphylococcus aureus
Description: as §1

[8] = test system: S. aureus KEM-MRSA1; format: cell-based, Staphylococcus aureus
Description: as §1

[9] = test system: S. aureus KEM-MRSA20; format: cell-based, Staphylococcus aureus
Description: as §1

[10] = test system: S. aureus KEM-MRSA21; format: cell-based, Staphylococcus aureus
Description: as §1

[11] = test system: S. aureus KEM-MRSA22; format: cell-based, Staphylococcus aureus
Description: as §1

[12] = test system: S. aureus KEM-MRSA24; format: cell-based, Staphylococcus aureus
Description: as §1

[13] = test system: S. aureus KEM-MRSA25; format: cell-based, Staphylococcus aureus
Description: as §1

[14] = test system: S. aureus KEM-MRSA2; format: cell-based, Staphylococcus aureus
Description: as §1

[15] = test system: S. aureus KEM-MRSA8; format: cell-based, Staphylococcus aureus
Description: as §1

[16] = test system: S. aureus Rehaja-MRSA1; format: cell-based, Staphylococcus aureus
Description: as §1

[17] = test system: S. aureus SG511; format: cell-based, Staphylococcus aureus
Description: as §1

[18] = test system: S. aureus wien13; format: cell-based, Staphylococcus aureus
Description: as §1

[19] = test system: S. aureus wien8; format: cell-based, Staphylococcus aureus
Description: as §1

[20] = test system: Citrobacter diversus 2046 E; format: cell-based
Description: as §1

[21] = test system: E. coli SS; format: cell-based
Description: as §1

[22] = test system: E. faecalis (FH-1); format: cell-based
Description: as §1

[23] = test system: E. faecalis (uD.8b); format: cell-based
Description: as §1

[24] = test system: E. faecalis 4073H; format: cell-based
Description: as §1

[25] = test system: E. faecalis ATCC BAA 472; format: cell-based
Description: as §1

[26] = test system: Enterococci KEM-VRE26; format: cell-based
Description: as §1

[27] = test system: Enterococci KEM-VRE27; format: cell-based
Description: as §1

[28] = test system: Enterococci KEM-VRE28; format: cell-based
Description: as §1

[29] = test system: Enterococci KEM-VRE29; format: cell-based
Description: as §1

[30] = test system: Klebsiella pneumoniae; format: cell-based
Description: as §1

[31] = test system: Pse. aeruginosa (M-35); format: cell-based
Description: as §1

[32] = test system: Salmonella typhi Para A; format: cell-based
Description: as §1

[33] = test system: Streptococcus durans 4939 (1) H; format: cell-based
Description: as §1

[34] = test system: Streptococcus durans; format: cell-based
Description: as §1

[35] = test system: Streptococcus equinus 02 D5 Gr1; format: cell-based
Description: as §1

[36] = test system: Streptococcus hirae 55; format: cell-based
Description: as §1

[37] = test system: E. faecium (O2-D3IP1); format: cell-based, Enterococcus faecium
Description: as §1

[38] = test system: E. faecium (VR-1); format: cell-based, Enterococcus faecium
Description: as §1

[39] = test system: E. faecium 4045H; format: cell-based, Enterococcus faecium
Description: as §1

[40] = test system: E. faecium D 18F; format: cell-based, Enterococcus faecium
Description: as §1

[41] = test system: E. faecium D-59; format: cell-based, Enterococcus faecium
Description: as §1

[42] = test system: B. firmus; format: cell-based, Bacillus firmus
Description: as §1

## C=C(NC(=O)C(=C)NC(=O)C1CCCN1C(=O)c1nc(-c2ccc(-c3nc(C(=O)NC(=C)C(=O)NC(C)C(N)=O)cs3)c(-c3csc(C4Cc5nc(cs5)C(=O)NC(Cc5ccccc5)C5=NC(CS5)C(=O)NC(Cc5ccc(O)cc5)C(=O)N5CCCC5c5nc(cs5)C(=O)N4)n3)n2)oc1C)C(N)=O (stereo not drawn) [PM181104]
[1]
  MIC: 0.01563 µg/mL (≈ 0.0103 µM)
[2]
  MIC: 0.03125 µg/mL (≈ 0.0206 µM)
[3]
  MIC: 0.03125 µg/mL (≈ 0.0206 µM)
[4]
  MIC: 0.03125 µg/mL (≈ 0.0206 µM)
[5]
  MIC: 0.0625 µg/mL (≈ 0.0412 µM)
[6]
  MIC: 0.0625 µg/mL (≈ 0.0412 µM)
[7]
  MIC: 0.01563 µg/mL (≈ 0.0103 µM)
[8]
  MIC: 0.03125 µg/mL (≈ 0.0206 µM)
[9]
  MIC: 0.01563 µg/mL (≈ 0.0103 µM)
[10]
  MIC: 0.01563 µg/mL (≈ 0.0103 µM)
[11]
  MIC: 0.00781 µg/mL (≈ 0.00515 µM)
[12]
  MIC: 0.00781 µg/mL (≈ 0.00515 µM)
[13]
  MIC: 0.01563 µg/mL (≈ 0.0103 µM)
[14]
  MIC: 0.03125 µg/mL (≈ 0.0206 µM)
[15]
  MIC: 0.01563 µg/mL (≈ 0.0103 µM)
[16]
  MIC: 0.03125 µg/mL (≈ 0.0206 µM)
[17]
  MIC: 0.0625 µg/mL (≈ 0.0412 µM)
[18]
  MIC: 0.0625 µg/mL (≈ 0.0412 µM)
[19]
  MIC: 0.01563 µg/mL (≈ 0.0103 µM)
[20]
  MIC: >1 µg/mL
[21]
  MIC: >1 µg/mL
[22]
  MIC: 0.00391 µg/mL (≈ 0.00258 µM)
[23]
  MIC: 0.00391 µg/mL (≈ 0.00258 µM)
[24]
  MIC: 0.00781 µg/mL (≈ 0.00515 µM)
[25]
  MIC: 0.01563 µg/mL (≈ 0.0103 µM)
[26]
  MIC: 0.00781 µg/mL (≈ 0.00515 µM)
[27]
  MIC: 0.00391 µg/mL (≈ 0.00258 µM)
[28]
  MIC: 0.00781 µg/mL (≈ 0.00515 µM)
[29]
  MIC: 0.00391 µg/mL (≈ 0.00258 µM)
[30]
  MIC: >1 µg/mL
[31]
  MIC: >1 µg/mL
[32]
  MIC: >1 µg/mL
[33]
  MIC: 0.00781 µg/mL (≈ 0.00515 µM)
[34]
  MIC: 0.00781 µg/mL (≈ 0.00515 µM)
[35]
  MIC: 0.01563 µg/mL (≈ 0.0103 µM)
[36]
  MIC: 0.00391 µg/mL (≈ 0.00258 µM)
[37]
  MIC: 0.00391 µg/mL (≈ 0.00258 µM)
[38]
  MIC: 0.00781 µg/mL (≈ 0.00515 µM)
[39]
  MIC: 0.00781 µg/mL (≈ 0.00515 µM)
[40]
  MIC: 0.00781 µg/mL (≈ 0.00515 µM)
[41]
  MIC: 0.00781 µg/mL (≈ 0.00515 µM)
[42]
  MIC: 0.01563 µg/mL (≈ 0.0103 µM)

From patent US8003602B2 (priority 2006, dated 2011)
